Values quoted from earlier work as cited in publication PMC11212004 (Pharmacology Research & Perspectives, 2024).

Experiments:
[1] = collagen‐induced arthritis (CIA) model

CCC(=O)Nc1ccc(Cl)c(Cl)c1 [DCPA, 3,4‐dichloropropionanilide]
Orai calcium channel antagonism (Orai calcium channel): functions as an Orai calcium channel antagonist | mineral resorption by osteoclasts in vitro (osteoclasts): inhibits mineral resorption | bone erosion and cartilage damage [1]: reduces bone erosion and cartilage damage | IL‐2 secretion (Jurkat cells): decreased NFAT‐dependent IL‐2 secretion
